Measurements taken from patent US20040171696A1, “Pharmaceutical composition for the treatment of the decline and/or damage of cognitive functions” (priority 2001, published 2004).

Assays:
[1] = tested on: Male Wistar rats; test: step through passive avoidance learning; assay type: in vivo, rat; settings: ip, FIG. 1
Method: Male Wistar rats weighing 200-220 g were used. The animals were obtained from Charles River Co. They were kept in a room with normal 12-12 h light dark cycle (light on: 06:00) at a relative humidity of 60±10%.
The experiment was performed in a five-channel “step through”-type passive avoidance learning apparatus. The equipment consisted of two adjacent Plexi-glass boxes of 20×20×16 cm. One of them was made of regular transparent Plexi-glass and the other one was made of black, non-transparent Plexi-glass. The boxes were connected with a 7.5×8 cm passage way, equipped with a computer-controlled guillotine-door. The passage of the rats through the door was detected by infrared photocells arranged in two parallel lines in the opening of the passage way. The door was automatically closed when the animals passed through. The dark compartment was equipped with stainless steel grid floor through which electric foot shocks could be delivered to the animals. […]
The individually numbered animals were placed into the light compartment of the equipment. […] Step through latency was automatically determined. […]
After 24 h the animals were placed again in the light compartment of the test apparatus and step-through latency was measured as described at Acquisition day, except that no foot shock was applied to the animals in any group on the second day. […]

[2] = cited from earlier work
[3] = molecular target: central 5-HT2C receptors (Homo sapiens, UniProt P28335); settings: cited from earlier work
[4] = molecular target: central 5-HT2A receptors (Homo sapiens, UniProt P28223); settings: cited from earlier work
Chain of central 5-HT2A receptors (P28223 whole entry): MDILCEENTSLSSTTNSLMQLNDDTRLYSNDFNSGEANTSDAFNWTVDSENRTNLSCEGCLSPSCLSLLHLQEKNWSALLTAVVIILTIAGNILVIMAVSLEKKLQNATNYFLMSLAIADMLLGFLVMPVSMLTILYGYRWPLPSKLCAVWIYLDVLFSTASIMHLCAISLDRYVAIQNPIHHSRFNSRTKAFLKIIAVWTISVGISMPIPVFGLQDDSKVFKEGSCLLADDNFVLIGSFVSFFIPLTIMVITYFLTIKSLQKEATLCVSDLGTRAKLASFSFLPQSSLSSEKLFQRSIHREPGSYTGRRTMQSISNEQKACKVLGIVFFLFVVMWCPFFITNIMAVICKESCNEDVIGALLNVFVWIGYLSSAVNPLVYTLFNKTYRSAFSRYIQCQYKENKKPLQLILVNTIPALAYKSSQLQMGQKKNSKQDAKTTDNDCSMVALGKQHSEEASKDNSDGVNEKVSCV

[5] = as low as 0.7 mg/kg intraperitoneal; cited from earlier work
[6] = tested on: rats; settings: 1 and 10 mg/kg per os; cited from earlier work
[7] = intraperitoneal 1 and 10 mg/kg; cited from earlier work
[8] = per os 10 and 30 mg/kg; cited from earlier work
[9] = 3 mg/kg single subcutaneous administration; cited from earlier work

Chain of central 5-HT2C receptors (P28335 33-458): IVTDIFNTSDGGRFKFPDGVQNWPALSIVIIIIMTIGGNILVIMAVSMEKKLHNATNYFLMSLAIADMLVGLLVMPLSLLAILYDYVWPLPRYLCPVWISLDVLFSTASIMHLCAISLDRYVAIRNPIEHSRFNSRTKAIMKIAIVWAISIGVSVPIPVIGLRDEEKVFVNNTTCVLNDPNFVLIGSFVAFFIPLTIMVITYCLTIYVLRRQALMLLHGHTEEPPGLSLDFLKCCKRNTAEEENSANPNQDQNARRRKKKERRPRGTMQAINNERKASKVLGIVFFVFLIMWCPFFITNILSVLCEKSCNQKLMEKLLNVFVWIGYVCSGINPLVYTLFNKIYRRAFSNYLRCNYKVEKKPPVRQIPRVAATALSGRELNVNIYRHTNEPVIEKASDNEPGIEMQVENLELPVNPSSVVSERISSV

SMILES	step-through latency into the dark compartment ([1]; Day 1 administration, 30 min before Acquisition, latency on Day 2)	step-through latency into the dark compartment ([1]; Day 2 administration, 30 min before Retention test)	effect on CCK agonist induced anxiety in elevated plus-maze ([2]; CCK agonist induced anxiety)	activity in elevated plus-maze, alone ([2]; deramciclane alone)	binding to 5-HT2C receptors [3]	binding to 5-HT2A receptors [4]	number of social interactions [5]	effect in Vogel lick-conflict model [6]	effect in learned helplessness [7]	activity in marble burying test [8]	anxiolytic activity in light-dark model [9]
CN(C)CCO[C@]1(c2ccccc2)C[C@H]2CC[C@]1(C)C2(C)C.O=C(O)/C=C/C(=O)O [(1R,2S,4R)-(−)-2-(2-dimethylaminoethoxy)-2-phenyl-1,7,7-trimethyl-bicyclo[2.2.1]heptane-fumarate]	significantly increased	significantly increased									
CN(C)CCO[C@]1(c2ccccc2)C[C@H]2CC[C@]1(C)C2(C)C [deramciclane, (1R,2S,4R)-(−)-2-(2-dimethylaminoethoxy)-2-phenyl-1,7,7-trimethylbicyclo[2.2.1]heptane]			antagonized CCK agonist induced anxiety	completely inactive	binds	binds	increased the number of social interactions	effective	effective	displayed significant activity	showed anxiolytic activity
